Experiments:
Assay in all cases: DBD combination treatment, viability enhancement factor
Format in all cases: cell-based, human
GS281NS = GS281NS (p15), labelled therapy combined with crystalline DBD polymorph
Description: (§1) Crystalline DBD polymorph treatment was combined with chemotherapy, radiotherapy and targeted inhibitors to determine whether the crystalline DBD polymorph form could: enhance efficacy of the conventional therapies; enhance efficacy when combined with newer ‘targeted’ therapies; or would make (a subset of) cultures more sensitive to this treatment.
(§2) Therefore, cultures were treated with: • a.

GS245NS = GS245NS (p16 + p15), labelled therapy combined with crystalline DBD polymorph
Description: as §1, §2

GS365NS = GS365NS (p17 + p16), labelled therapy combined with crystalline DBD polymorph
Description: as §1, §2

GS104periNS = GS104periNS (p21 + p22), labelled therapy combined with crystalline DBD polymorph
Description: as §1, §2

GS102periNS = GS102periNS (p20 + p21), labelled therapy combined with crystalline DBD polymorph
Description: as §1, §2

GS186coreNS = GS186coreNS (p18), labelled therapy combined with crystalline DBD polymorph
Description: as §1, §2

GS184NS = GS184NS (p18 + p19), labelled therapy combined with crystalline DBD polymorph;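 also: DBD at its own IC50 and half IC50 determined at Day 5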
Description: as §1, §2

GS323periNS = conditions: Day 5; GS323periNS (p20 + p19); labelled therapy combined with crystalline DBD polymorph
Description: as §1, §2

GS324coreNS = GS324coreNS (p19), labelled therapy combined with crystalline DBD polymorph
Description: as §1, §2

GS261NS = GS261NS (p13), labelled therapy combined with crystalline DBD polymorph
Description: as §1, §2

GS279periNS = GS279periNS (p16 + p15), labelled therapy combined with crystalline DBD polymorph;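 also: DBD at its own IC50 and half IC50 determined at Day 5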
Description: as §1, §2

GS249NS = GS249NS (p17), labelled therapy combined with crystalline DBD polymorph
Description: as §1, §2

GS224NS = GS224NS (p17), labelled therapy combined with crystalline DBD polymorph
Description: as §1, §2

GS289NS = GS289NS (p15 + p16), labelled therapy combined with crystalline DBD polymorph;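 also: DBD at its own IC50 and half IC50 determined at Day 5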
Description: as §1, §2

GS257NS = GS257NS (p16 + p17), labelled therapy combined with crystalline DBD polymorph;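 also: DBD at its own IC50 and half IC50 determined at Day 5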
Description: as §1, §2

GS304NS = GS304NS (p16), labelled therapy combined with crystalline DBD polymorph
Description: as §1, §2

GS186periNS = GS186periNS (p15), labelled therapy combined with crystalline DBD polymorph
Description: as §1, §2

GS279coreNS = conditions: Day 5; GS279coreNS (p12 + p13); labelled therapy combined with crystalline DBD polymorph
Description: as §1, §2

GS359NS = GS359NS (p15 + p14), labelled therapy combined with crystalline DBD polymorph
Description: as §1, §2

GS203NS = conditions: Day 8; GS203NS (P19 + p18); labelled therapy combined with crystalline DBD polymorph
Description: as §1, §2

| Structure (SMILES) | enhancement factor (viability % of most effective monotherapy divided by viability % of combination) (GS281NS; Day 5) | enhancement factor (viability % of most effective monotherapy divided by viability % of combination) (GS281NS; Day 8) | enhancement factor (viability % of most effective monotherapy divided by viability % of combination) (GS245NS; Day 5) | enhancement factor (viability % of most effective monotherapy divided by viability % of combination) (GS245NS; Day 8) | enhancement factor (viability % of most effective monotherapy divided by viability % of combination) (GS365NS; Day 5) | enhancement factor (viability % of most effective monotherapy divided by viability % of combination) (GS365NS; Day 8) | enhancement factor (viability % of most effective monotherapy divided by viability % of combination) (GS104periNS; Day 8) | enhancement factor (viability % of most effective monotherapy divided by viability % of combination) (GS102periNS; Day 5) | enhancement factor (viability % of most effective monotherapy divided by viability % of combination) (GS102periNS; Day 8) | enhancement factor (viability % of most effective monotherapy divided by viability % of combination) (GS186coreNS; Day 5) | enhancement factor (viability % of most effective monotherapy divided by viability % of combination) (GS186coreNS; Day 8) | enhancement factor (viability % of most effective monotherapy divided by viability % of combination) (GS184NS; Day 5) | enhancement factor (viability % of most effective monotherapy divided by viability % of combination) (GS184NS; Day 8) | enhancement factor (viability % of most effective monotherapy divided by viability % of combination) (GS323periNS) | enhancement factor (viability % of most effective monotherapy divided by viability % of combination) (GS324coreNS; Day 5) | enhancement factor (viability % of most effective monotherapy divided by viability % of combination) (GS324coreNS; Day 8) | enhancement factor (viability % of most effective monotherapy divided by viability % of combination) (GS279periNS; Day 5) | enhancement factor (viability % of most effective monotherapy divided by viability % of combination) (GS279periNS; Day 8) | enhancement factor (viability % of most effective monotherapy divided by viability % of combination) (GS249NS; Day 5) | enhancement factor (viability % of most effective monotherapy divided by viability % of combination) (GS224NS; Day 5) | also measured |
| --- | --- | --- | --- | --- | --- | --- | --- | --- | --- | --- | --- | --- | --- | --- | --- | --- | --- | --- | --- | --- | --- |
| C[C@]1(c2nc3c(C(N)=O)cccc3[nH]2)CCCN1 [ABT-888] | 0.933 | 0.812 | 1.256 | 0.991 | 1.096 | 1.052 | 1.810 | 1.248 | 1.055 | 1.394 | 1.359 | 1.084 | 1.044 | 1.106 | 1.275 | 1.322 | 1.146 | 1.102 | 2.994 | 1.105 | enhancement factor (viability % of most effective monotherapy divided by viability % of combination) (GS104periNS; Day 5): 1.175; enhancement factor (viability % of most effective monotherapy divided by viability % of combination) (GS261NS; Day 5): 1.388; enhancement factor (viability % of most effective monotherapy divided by viability % of combination) (GS261NS; Day 8): 1.631; enhancement factor (viability % of most effective monotherapy divided by viability % of combination) (GS249NS; Day 8): 5.030; enhancement factor (viability % of most effective monotherapy divided by viability % of combination) (GS224NS; Day 8): 1.201; enhancement factor (viability % of most effective monotherapy divided by viability % of combination) (GS289NS; Day 5): 1.112; enhancement factor (viability % of most effective monotherapy divided by viability % of combination) (GS289NS; Day 8): 1.113; enhancement factor (viability % of most effective monotherapy divided by viability % of combination) (GS257NS; Day 5): 0.922; enhancement factor (viability % of most effective monotherapy divided by viability % of combination) (GS257NS; Day 8): 1.053; enhancement factor (viability % of most effective monotherapy divided by viability % of combination) (GS304NS; Day 5): 1.245; enhancement factor (viability % of most effective monotherapy divided by viability % of combination) (GS304NS; Day 8): 1.933; enhancement factor (viability % of most effective monotherapy divided by viability % of combination) (GS186periNS; Day 5): 1.134; enhancement factor (viability % of most effective monotherapy divided by viability % of combination) (GS186periNS; Day 8): 1.319; enhancement factor (viability % of most effective monotherapy divided by viability % of combination) (GS279coreNS): 1.321; enhancement factor (viability % of most effective monotherapy divided by viability % of combination) (GS359NS; Day 5): 1.175; enhancement factor (viability % of most effective monotherapy divided by viability % of combination) (GS359NS; Day 8): 1.148 |
| C/C(=C\C(=O)Nc1ccccc1C(=O)O)c1ccc2ccccc2c1 [BIBR1532] | 0.641 | 2.457 | 1.364 | 1.936 | 1.767 | 2.954 | 1.247 | 1.414 | 2.661 | 1.787 | 1.498 | 1.752 | 1.367 | 0.959 | 1.282 | 1.713 | 1.361 | 1.214 | 0.909 | 0.969 | enhancement factor (viability % of most effective monotherapy divided by viability % of combination) (GS203NS): 1.110; enhancement factor (viability % of most effective monotherapy divided by viability % of combination) (GS224NS; Day 8): 0.469; enhancement factor (viability % of most effective monotherapy divided by viability % of combination) (GS289NS; Day 5): 1.383; enhancement factor (viability % of most effective monotherapy divided by viability % of combination) (GS289NS; Day 8): 1.879; enhancement factor (viability % of most effective monotherapy divided by viability % of combination) (GS257NS; Day 5): 1.322; enhancement factor (viability % of most effective monotherapy divided by viability % of combination) (GS257NS; Day 8): 2.162; enhancement factor (viability % of most effective monotherapy divided by viability % of combination) (GS304NS; Day 8): 1.065; enhancement factor (viability % of most effective monotherapy divided by viability % of combination) (GS186periNS; Day 5): 2.900; enhancement factor (viability % of most effective monotherapy divided by viability % of combination) (GS186periNS; Day 8): 1.010; enhancement factor (viability % of most effective monotherapy divided by viability % of combination) (GS279coreNS): 1.526; enhancement factor (viability % of most effective monotherapy divided by viability % of combination) (GS359NS; Day 5): 2.499; enhancement factor (viability % of most effective monotherapy divided by viability % of combination) (GS359NS; Day 8): 1.168 |

— patent US20220142941A1, “COMBINATION THERAPEUTIC REGIMENS WITH 1,6-DIBROMO-1,6-DIDEOXY-DULCITOL” (Eleison Pharmaceuticals LLC, priority 2019, published 2022)
